Holding throughout (format): cell-based
The test system of one assay is SW620. Nature of the assay: Cell proliferative assay (MTT), SW620. The settings on record: Homo sapiens, SW-620, 72 h incubation, read-out: IC50s SW620. As for the experimental part:
(§1) The synthesized compounds were evaluated for their cytotoxin activity against suspended tumor cells. These cells were seeded on 96-well plates and incubated for 24 h. Selected compounds were added at various doses and incubated for 72 h, MTT was then added, and the absorbance was measured at a wavelength of 590 nm. IC50 values are expressed as the mean±SEM from the dose-response curves of at least three independent experiments.

The subject of a further assay is HCT116. The assay can be described thus: Cell proliferative assay (MTT), HCT116. To be noted: Homo sapiens, HCT-116, 72 h incubation, read-out: IC50s HCT116. As for the experimental part: as §1
The subject of the next assay is HepG2. The assay can be described thus: Cell proliferative assay (MTT), HepG2. To be noted: Homo sapiens, 72 h incubation, read-out: IC50s HepG2. The procedure, abridged: (§2)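 Absorbance at 590 nm after MTT addition gives cell viability. Compounds at graded doses are incubated with the cells for 72 h, following a 24 h settling period after seeding.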
The next assay has as its system tumor cells. The assay can be described thus: Cell proliferative assay (MTT), summary over tumor cells. The settings on record: summary in words of Table 1; colon, liver, leukemia lines. The protocol: as §1
The subject of another assay is HT29. The assay can be described thus: Cell proliferative assay (MTT), HT29. The settings on record: Homo sapiens, HT-29, 72 h incubation, read-out: IC50s HT29. The protocol:
as §1

The test system of a further assay is K562. The assay can be described thus: Cell proliferative assay (MTT), K562. The settings on record: Homo sapiens, 72 h incubation, read-out: IC50s K562. The procedure, abridged:
as §2

The test system of another assay is A375. The assay can be described thus: Cell proliferative assay (MTT), A375. To be noted: Homo sapiens, A-375, 72 h incubation, read-out: IC50s A375. The procedure, abridged:
as §2

The test system of a further assay is LO2. Nature of the assay: Cell proliferative assay (MTT), LO2. To be noted: Homo sapiens, L02, 72 h incubation, read-out: IC50s LO2. Put shortly: as §2
For another assay, the system named is SMMC-7221. Nature of the assay: Cell proliferative assay (MTT), SMMC-7221. The settings on record: 72 h incubation, read-out: IC50s SMMC-7221. Put shortly:
as §2

The next assay has as its system A549. Nature of the assay: Cell proliferative assay (MTT), A549. To be noted: Homo sapiens, 72 h incubation, read-out: IC50s A549. Put shortly:
as §2

Each structure is given as a SMILES string.

For `COc1ccc(/C=C/C(=O)c2ccc(OC)c3c2OC(C)(C)C=C3)c(F)c1` [SKLBC-4, (E)-3-(2-fluoro-4-methoxyphenyl)-1-(5-methoxy-2,2-dimethyl-2H-chromen-8-yl)prop-2-en-1-one], the IC50 is 6.57 µM with SW620; above 10 µM in the assay with HCT116; 7.56 µM in the assay with HepG2; above 10 µM in the assay with HT29; above 10 µM in the assay on K562. Besides, in the assay on tumor cells, the “inhibitory activity against tumor cells” value is recorded as “better inhibitory activity”.
As to `COc1ccc(C(=O)/C=C/c2ccc3ccccc3c2)c2c1C=CC(C)(C)O2` [SKLBC-10, (E)-1-(5-methoxy-2,2-dimethyl-2H-chromen-8-yl)-3-(naphthalen-2-yl)prop-2-en-1-one], the IC50 was 2.14 µM in the assay with SW620; above 10 µM in the assay on HCT116; 0.21 µM in the assay on HepG2; 4.48 µM with HT29; 3.67 µM with K562. Besides, in the assay on tumor cells, the “inhibitory activity against tumor cells” value was “better inhibitory activity”.
`CCN(CC)c1ccc(/C=C/C(=O)c2ccc(OC)c3c2OC(C)(C)C=C3)cc1` [SKLBC-12, (E)-3-(4-(diethylamino)phenyl)-1-(5-methoxy-2,2-dimethyl-2H-chromen-8-yl)prop-2-en-1-one]: the IC50 was above 10 µM in the assay with SW620; above 10 µM in the assay with HCT116; 2.3 µM in the assay on HepG2; 1.31 µM in the assay with HT29; 4.6 µM with K562. Besides, in the assay on tumor cells, the “inhibitory activity against tumor cells” value is “better inhibitory activity”.
Turning to `COc1ccc(C(=O)/C=C/c2ccc(N3CCCC3)cc2)c2c1C=CC(C)(C)O2` [SKLBC-14, (E)-1-(5-methoxy-2,2-dimethyl-2H-chromen-8-yl)-3-(4-(pyrrolidin-1-yl)phenyl)prop-2-en-1-one], the IC50 in the assay with SW620 is above 10 µM; with HCT116, 8.88 µM; with HepG2, 4.74 µM; in the assay on HT29 it was above 10 µM; in the assay on K562, above 10 µM. Further, in the assay on tumor cells, the “inhibitory activity against tumor cells” value is listed as “better inhibitory activity”.
Regarding `COc1ccc(C(=O)/C=C/c2ccc3ccccc3n2)c2c1C=CC(C)(C)O2` [SKLBC-16, (E)-1-(5-methoxy-2,2-dimethyl-2H-chromen-8-yl)-3-(quinolin-2-yl)prop-2-en-1-one], the IC50 with SW620 was 2.25 µM; in the assay on HCT116, above 10 µM; in the assay with HepG2, 4.28 µM; in the assay with HT29, 3.79 µM; in the assay with K562 it was 3.02 µM. For the same compound, in the assay with tumor cells, the “inhibitory activity against tumor cells” value is recorded as “better inhibitory activity”.
Regarding `COc1ccccc1/C=C/C(=O)c1ccc(OC)c2c1OC(C)(C)C=C2` [SKLBC-40, (E)-1-(5-methoxy-2,2-dimethyl-2H-chromen-8-yl)-3-(2-methoxyphenyl)prop-2-en-1-one], the IC50 in the assay on SW620, with HCT116, in the assay with HepG2, with HT29 and in the assay on K562 was above 10 µM each time.
Take `CCOc1ccc(C(=O)/C=C/c2ccc(N(CC)CC)cc2)c2c1C=CC(C)(C)O2` [SKLBC-41, (E)-3-(4-(diethylamino)phenyl)-1-(5-ethoxy-2,2-dimethyl-2H-chromen-8-yl)prop-2-en-1-one]: the “inhibitory activity against tumor cells” value in the assay with tumor cells is on record as “better inhibitory activity”.
As to `CCN(CC)c1ccc(/C=C/C(=O)c2ccc(OS(=O)(=O)c3ccc(C)cc3)c3c2OC(C)(C)C=C3)cc1` [SKLBC-46, (E)-8-(3-(4-(diethylamino)phenyl)acryloyl)-2,2-dimethyl-2H-chromen-5-yl 4-methylbenzenesulfonate], the IC50 is 8.4 µM with A375; 9.7 µM with HepG2; 8.2 µM in the assay with LO2; above 10 µM with SMMC-7221; 9.7 µM in the assay on A549; 4.42 µM with K562. Further, the “inhibitory activity against tumor cells” value in the assay with tumor cells is listed as “better inhibitory activity”.
With `CCN(CC)c1ccc(/C=C/C(=O)c2ccc(OS(C)(=O)=O)c3c2OC(C)(C)C=C3)cc1` [SKLBC-47, (E)-8-(3-(4-(diethylamino)phenyl)acryloyl)-2,2-dimethyl-2H-chromen-5-yl methanesulfonate], the IC50 with A375 is 0.45 µM; in the assay on HepG2, 0.185 µM; in the assay with LO2 it was above 20 µM; in the assay with SMMC-7221 it was 0.23 µM; with A549, 8.45 µM; in the assay on K562, 0.528 µM. Besides, the “inhibitory activity against tumor cells” value with tumor cells is given as “better inhibitory activity”.
Regarding `C=CC(=O)Oc1ccc(C(=O)/C=C/c2ccc(N(CC)CC)cc2)c2c1C=CC(C)(C)O2` [SKLBC-49, (E)-8-(3-(4-(diethylamino)phenyl)acryloyl)-2,2-dimethyl-2H-chromen-5-yl acrylate], the IC50 with A375 came out at 4.1 µM; in the assay with HepG2, 5.55 µM; with LO2, 8.6 µM; with SMMC-7221 it was 8.6 µM; in the assay with A549 it was 6.9 µM; in the assay with K562 it was 2.92 µM. In addition, the “inhibitory activity against tumor cells” value in the assay on tumor cells was “better inhibitory activity”.
For the compound `CCN(CC)c1ccc(/C=C/C(=O)c2ccc(OC(=O)c3ccco3)c3c2OC(C)(C)C=C3)cc1` [SKLBC-50, (E)-8-(3-(4-(diethylamino)phenyl)acryloyl)-2,2-dimethyl-2H-chromen-5-yl furan-2-carboxylate], the IC50 in the assay with A375 is 9.2 µM; with HepG2, 0.703 µM; in the assay with LO2 it was above 20 µM; in the assay on SMMC-7221, 9.7 µM; in the assay on A549, 1.61 µM; in the assay on K562 it was 0.59 µM. Further, the “inhibitory activity against tumor cells” value in the assay with tumor cells is reported as “better inhibitory activity”.
Regarding `CCN(CC)c1ccc(/C=C/C(=O)c2ccc(OC(=O)C(C)C)c3c2OC(C)(C)C=C3)cc1` [SKLBC-52, (E)-8-(3-(4-(diethylamino)phenyl)acryloyl)-2,2-dimethyl-2H-chromen-5-yl isobutyrate], the IC50 is 0.61 µM in the assay on A375; 0.59 µM with HepG2; above 10 µM in the assay on LO2; 0.78 µM in the assay with SMMC-7221; 0.94 µM with A549; 0.317 µM in the assay with K562. Further, in the assay with tumor cells, the “inhibitory activity against tumor cells” value was “better inhibitory activity”.
On to `CCN(CC)c1ccc(/C=C/C(=O)c2ccc(OC(=O)C3CC3)c3c2OC(C)(C)C=C3)cc1` [SKLBC-54, (E)-8-(3-(4-(diethylamino)phenyl)acryloyl)-2,2-dimethyl-2H-chromen-5-yl cyclopropanecarboxylate], for which the IC50 is 0.263 µM with A375; 0.533 µM with HepG2; above 10 µM with LO2; 0.773 µM in the assay on SMMC-7221; 0.41 µM in the assay on A549; 0.51 µM with K562. The “inhibitory activity against tumor cells” value with tumor cells is “better inhibitory activity”.
As for `CCN(CC)c1ccc(/C=C/C(=O)c2ccc(OC(=O)Cc3cccc(C(F)(F)F)c3)c3c2OC(C)(C)C=C3)cc1` [SKLBC-55, (E)-8-(3-(4-(diethylamino)phenyl)acryloyl)-2,2-dimethyl-2H-chromen-5-yl 2-(3-(trifluoromethyl)phenyl)acetate], the IC50 with A375 was 0.48 µM; in the assay on HepG2, 1.07 µM; in the assay on LO2, above 10 µM; in the assay with SMMC-7221, 1.62 µM; in the assay on A549 it was 0.5 µM; in the assay with K562, 1.05 µM. Also, the “inhibitory activity against tumor cells” value in the assay on tumor cells is given as “better inhibitory activity”.
